Assay results published in PMC3199943, “Screening the MayBridge Rule of 3 Fragment Library for Compounds That Interact with the Trypanosoma brucei myo-Inositol-3-Phosphate Synthase and/or Show Trypanocidal Activity” (Molecular Biology International, 2011).

tested on: A549 cells; assay: Cytotoxicity against A549 cells, Alamar Blue; format: cell-based; conditions: Homo sapiens, A549, 65 h; Supplementary Table 1; compound 0.5 mM; percentage of controls (n=1)
Method: (§1) Cytotoxic effects against HeLa and A549 cells were determined in a similar manner. Briefly, the cells were cultured in DMEM supplemented with 10% FCS and 2 mM L-Glutamine. Cells were plated at initial cell concentration of 2 × 10^4 cells/well and incubated with the compounds for ~65 hours prior to addition of Alamar Blue solution for a further 5 hours.

SMILES | viability at 500 µM
Cn1c(=S)oc2ccccc21 [compound 310, 3‐methyl‐1,3‐benzoxazole‐2(3H)‐thione] | 104%
OCc1nc2ccccc2s1 [compound 312, 1,3‐benzothiazol‐2‐ylmethanol] | 64.4%
OCc1ccc(C(F)(F)F)o1 [compound 314, [5‐(trifluoromethyl)‐2‐furyl]methanol] | 76.9%
O=C1CCC(C(F)(F)F)CC1 [compound 317, 4‐(trifluoromethyl)cyclohexan‐1‐one] | 90.5%
O=C1CCOc2ccc(F)cc21 [compound 318, 6‐fluorochroman‐4‐one] | 99%
OCCc1ccc2c(c1)OCO2 [compound 321, 2‐(1,3‐benzodioxol‐5‐yl)ethanol] | 138%
CN(C(N)=S)c1ccccc1 [compound 325, N‐methyl‐N‐phenylthiourea] | 82.7%
Cc1ccccc1NC(N)=S [compound 326, N‐(2‐methylphenyl)thiourea] | 125%
NC(=O)NCc1ccc(F)cc1 [compound 334, N‐(4‐fluorobenzyl)urea] | 91.8%
N#Cc1ccccc1-n1cccc1 [compound 336, 2‐(1H‐pyrrol‐1‐yl)benzonitrile] | 134%
N#Cc1cccc(-c2ccco2)c1 [compound 338, 3‐(2‐furyl)benzonitrile] | 57.8%
Oc1nc2ccc(Cl)cc2o1 [compound 342, 6‐chloro‐1,3‐benzoxazol‐2‐ol] | 73.9%
N#Cc1ccc(-c2ccco2)nc1 [compound 344, 6‐(2‐furyl)nicotinonitrile] | 104%
Nc1cccc(-c2cccnc2)c1 [compound 346, 3‐pyridin‐3‐ylaniline] | 98.5%
Nc1ccc(-c2cccnc2)cc1 [compound 347, 4‐pyridin‐3‐ylaniline] | 113%
Nc1ccccc1-c1cccnc1 [compound 348, 2‐pyridin‐3‐ylaniline] | 85.3%
Cc1ccc(C(=O)O)cc1Cl [compound 351, 3‐chloro‐4‐methylbenzoic acid] | 112%
COC(=O)c1ccccc1Cl [compound 352, methyl 2‐chlorobenzoate] | 76.4%
Cc1ccccc1S(N)(=O)=O [compound 355, 2‐methylbenzene‐1‐sulfonamide] | 87.9%
CCCCCSc1nnc[nH]1 [compound 357, 3‐(pentylthio)‐4H‐1,2,4‐triazole] | 45.3%
N#Cc1cnccc1C(F)(F)F [compound 358, 4‐(trifluoromethyl)nicotinonitrile] | 129%
NCc1ccccc1-n1cccc1 [compound 363, [2‐(1H‐pyrrol‐1‐yl)phenyl]methylamine] | 45.6%
NCc1cccc(-n2cccc2)c1 [compound 364, 3‐(1H‐pyrrol‐1‐yl)benzylamine] | 56.9%
NCc1ccc(-n2cccc2)cc1 [compound 365, 4‐(1H‐pyrrol‐1‐yl)benzylamine] | 94.4%
CNCc1ccc2ncccc2c1 [compound 366, N‐methyl‐N‐(quinolin‐6‐ylmethyl)amine] | 74.6%
CC(=O)c1ccc(F)c(Cl)c1 [compound 367, 1‐(3‐chloro‐4‐fluorophenyl)ethan‐1‐one] | 58.8%
Nc1ccc(Cn2ccnc2)cc1 [compound 375, 4‐(1H‐imidazol‐1‐ylmethyl)aniline] | 90.7%

tested on: HeLa cells; assay: cells; conditions: Homo sapiens, HeLa, 65 h, read-out: HeLa Cells Alamar Blue
Method: as §1

SMILES | viability at 500 µM
Cn1c(=S)oc2ccccc21 [compound 310, 3‐methyl‐1,3‐benzoxazole‐2(3H)‐thione] | 103 ± 14.3%
OCc1nc2ccccc2s1 [compound 312, 1,3‐benzothiazol‐2‐ylmethanol] | 80.7 ± 16.2%
OCc1ccc(C(F)(F)F)o1 [compound 314, [5‐(trifluoromethyl)‐2‐furyl]methanol] | 114 ± 8.2%
O=C1CCC(C(F)(F)F)CC1 [compound 317, 4‐(trifluoromethyl)cyclohexan‐1‐one] | 111 ± 7.2%
O=C1CCOc2ccc(F)cc21 [compound 318, 6‐fluorochroman‐4‐one] | 104 ± 16.4%
OCCc1ccc2c(c1)OCO2 [compound 321, 2‐(1,3‐benzodioxol‐5‐yl)ethanol] | 109 ± 5.9%
CN(C(N)=S)c1ccccc1 [compound 325, N‐methyl‐N‐phenylthiourea] | 33.9 ± 11.6%
NC(=O)NCc1ccc(F)cc1 [compound 334, N‐(4‐fluorobenzyl)urea] | 112 ± 4.7%
N#Cc1ccccc1-n1cccc1 [compound 336, 2‐(1H‐pyrrol‐1‐yl)benzonitrile] | 68.5 ± 16.3%
N#Cc1cccc(-c2ccco2)c1 [compound 338, 3‐(2‐furyl)benzonitrile] | 18.5 ± 15.2%
Oc1nc2ccc(Cl)cc2o1 [compound 342, 6‐chloro‐1,3‐benzoxazol‐2‐ol] | 94.3 ± 6.5%
N#Cc1ccc(-c2ccco2)nc1 [compound 344, 6‐(2‐furyl)nicotinonitrile] | 48.9 ± 5%
Nc1cccc(-c2cccnc2)c1 [compound 346, 3‐pyridin‐3‐ylaniline] | 73.9 ± 6.1%
Nc1ccc(-c2cccnc2)cc1 [compound 347, 4‐pyridin‐3‐ylaniline] | 79.3 ± 2.8%
Nc1ccccc1-c1cccnc1 [compound 348, 2‐pyridin‐3‐ylaniline] | 18.2 ± 10%
Cc1ccc(C(=O)O)cc1Cl [compound 351, 3‐chloro‐4‐methylbenzoic acid] | 88.2 ± 17.9%
COC(=O)c1ccccc1Cl [compound 352, methyl 2‐chlorobenzoate] | 95.8 ± 19%
Cc1ccccc1S(N)(=O)=O [compound 355, 2‐methylbenzene‐1‐sulfonamide] | 89.1 ± 16.6%
CCCCCSc1nnc[nH]1 [compound 357, 3‐(pentylthio)‐4H‐1,2,4‐triazole] | 64.5 ± 8.6%
N#Cc1cnccc1C(F)(F)F [compound 358, 4‐(trifluoromethyl)nicotinonitrile] | 103 ± 1.7%
NCc1ccccc1-n1cccc1 [compound 363, [2‐(1H‐pyrrol‐1‐yl)phenyl]methylamine] | 42.6 ± 11.7%
NCc1cccc(-n2cccc2)c1 [compound 364, 3‐(1H‐pyrrol‐1‐yl)benzylamine] | 29.5 ± 12.9%
NCc1ccc(-n2cccc2)cc1 [compound 365, 4‐(1H‐pyrrol‐1‐yl)benzylamine] | 50.9 ± 11%
CNCc1ccc2ncccc2c1 [compound 366, N‐methyl‐N‐(quinolin‐6‐ylmethyl)amine] | 64.6 ± 11.4%
CC(=O)c1ccc(F)c(Cl)c1 [compound 367, 1‐(3‐chloro‐4‐fluorophenyl)ethan‐1‐one] | 98.7 ± 6.5%
Nc1ccc(Cn2ccnc2)cc1 [compound 375, 4‐(1H‐imidazol‐1‐ylmethyl)aniline] | 88 ± 18.8%

same assay, conditions: Homo sapiens, HeLa, 65 h, read-out: HeLa Cells Alamar Blue, Supplementary Table 1; compound 0.5 mM; percentage of controls; mean ± SD (n=3) or SE (n=2)

SMILES | viability at 500 µM
Cc1ccccc1NC(N)=S [compound 326, N‐(2‐methylphenyl)thiourea] | 111 ± 8.5%

same assay, conditions: Homo sapiens, HeLa, read-out: HeLa ED50

SMILES | CC50
CN(C(N)=S)c1ccccc1 [compound 325, N‐methyl‐N‐phenylthiourea] | 415 ± 24 µM
Nc1ccccc1-c1cccnc1 [compound 348, 2‐pyridin‐3‐ylaniline] | 21.8 ± 1.8 µM
NCc1cccc(-n2cccc2)c1 [compound 364, 3‐(1H‐pyrrol‐1‐yl)benzylamine] | 40.4 ± 1.8 µM
NCc1ccc(-n2cccc2)cc1 [compound 365, 4‐(1H‐pyrrol‐1‐yl)benzylamine] | 71.8 ± 3.7 µM
